In patent US7482329B2, “Single domain TDF-related compounds and analogs thereof” (Thrasos Therapeutics, priority 2002, dated 2009):
“Also recorded” adds a separate entry of the source. Where a SMILES comes first, the peptide text is derived from it.

System: IL-6 in HK2 human transformed kidney proximal tubule cells
Assay: IL-6 level in HK-2 cell medium after TNF-alpha stimulation (ELISA)
Format: cell-based
Conditions: for effect on level of IL-6 in HK2 cell medium: after TNF-alpha inflammatory stimulation, FIG. 6, FIG. 10
Method: The immortalized PTEC-derived HK-2 (Human Kidney-2) cells (ATCC number CRL-2190) were grown in serum-free keratinocyte medium (GIBCO number 17005-042) supplemented with epidermal growth factor (EGF: 5 ng/mL) and bovine pituitary extract (40 ug/mL) for 48 hours as described previously (Ryan et al (1994) Kidney International 45:48-57). Cells were transferred to 24-well plates at a density of 3×10^5 cells per well. After 24 hours, cells were incubated with fresh medium containing TNF-alpha (5 ng/mL) for 20 hours. Controls received medium alone. Then cells were washed twice with fresh culture medium and further incubated with culture medium alone (medium control, and TNF control wells) or TDF-1 at three different concentrations (40, 200 or 1000 ng/mL) or TDFRP compounds at three different concentrations (4, 20 or 100 uM) for sixty hours. During incubation, cells were kept in a 5% CO2 humid atmosphere at 37° C. At the end of the incubation, the media were removed and stored frozen until assayed. The concentrations of IL-6 and sICAM-in culture supernatants were measured by specific ELISA.
Dilute the capture antibody to the working concentration in PBS, pH 7.4 without carrier protein. Add 61 uL of stock antibody (360 ug/mL) to 10.939 mL of PBS, gently vertex. Immediately coat a 96 well microplate (Immulon 4 HBX) with 100 uL per well of the diluted capture antibody. Seal the plate and incubate it overnight in cold (4° C.). (PBS: 8.1 mM Na2HPO4, 1.5 mM KH2PO4, 137 mM NaCl, 2.7 mM KCl, pH 7.4, 0.2 um filtered). Next day empty the wells and wash the wells three times, each time using 340 uL of wash buffer per well. (wash buffer: PBS, pH 7.4 containing 0.05% Tween-20).
Prepare blocking buffer, 35 mL per plate. To prepare blocking buffer, add 0.35 grams of BSA and 1.75 grams of sucrose to 35 mL of PBS, pH 7.4, and mix the contents gently. Add 300 uL of blocking buffer to each well and incubate the plate for a minimum of 1 hour at room temperature. Empty the wells and wash wells three times, each time using 340 uL of wash buffer per well.
Prepare a 8 point standard curve using 2-fold serial dilutions in reagent diluent. Dilute stock standard, recombinant IL-6, 70 ng/mL to an initial concentration of 2400 ng/mL in reagent diluent. Then further dilute the standard to a working range, 1200, 600, 300, 150, 75, 37.5, 18.75 and 9.375 ng/mL using reagent diluent. (to prepare reagent diluent, add 0.4 grams of BSA to 40 mL of PBS, pH 7.4 and gently vertex). Also dilute 24 uL of each sample medium (from HK-2 cell cultures) with 376 uL of reagent diluent. Add 100 uL of standard or sample per well, seal the plate and incubate it overnight in cold (4° C.).
Next day, empty the wells and wash wells three times, each time using 340 uL of wash buffer per well. […]

Molecule: CC(C)C[C@H](NC(=O)[C@@H](NC(=O)[C@H](CC(N)=O)NC(=O)[C@H](CO)NC(=O)[C@H](CO)NC(=O)[C@H](CC(=O)O)NC(=O)[C@H](CC(=O)O)NC(=O)[C@H](Cc1ccccc1)NC(=O)[C@H](Cc1ccc(O)cc1)NC(=O)[C@@H](N)CS)C(C)C)C(=O)N[C@@H](CS)C(=O)N[C@@H](CCCCN)C(=O)N[C@@H](CCCCN)C(=O)N[C@@H](Cc1ccc(O)cc1)C(=O)N[C@@H](CCCNC(=N)N)C(=O)N[C@@H](CO)C(=O)O [SEQ ID NO:45, CYFDDSSNVLCKKYRS] (H-CYFDDSSNVLCKKYRS-OH)
- EC50 (HK2 cells, 5 ng/ml TNF-alpha stimulus, FIG. 6, read-out: ED50, lowering of IL-6 level): ~10 µM
- effect on level of IL-6 in HK2 cell medium: reduces the level of cellular inflammation marker IL-6; also recorded: lowers the level of IL-6 in a dose dependent manner

B1: TDF-1: TDF-1 (BMP-7 or OP-1), bone morphogenetic protein-7; unlabeled control ligand in the binding and cell assays (protein)
chain: STGSKQRSQNRSKTPKNQEALRMANVAENSSSDQRQACKKHELYVSFRDLGWQDWIIAPEGYAAYYCEGECAFPLNSYMNATNHAIVQTLVHFINPETVPKPCCAPTQLNAISVLYFDDSSNVILKKYRNMVVRACGCH
- effect on level of IL-6 in HK2 cell medium: lowers the level of IL-6 in a dose dependent manner; also recorded: brings the IL-6 level down below the basal level
